Read-outs that look alike come from different tables or passages of the source.
Tests used:
Type in all cases: cell-based
[1] = system: HER2+/2VE Ba/F3 line; test: Ba/F3 proliferation assay, HER2+/2VE; conditions: Tables 7 and 8
Protocol: (§1) Proliferation Assays. For adherent cell lines, cells were plated onto opaque white 96 well plates (Greiner cat #655083) and allowed to adhere overnight. The following day media was changed to fresh media that contained either DMSO or the indicated concentration of drug plus NRG (50 ng/mL final concentration) as indicated. Plates were incubated at 37° C. for 72 h and proliferation was read out using Cell Titer Glo (Promega) according to the manufacturer's protocol. For Ba/F3 cell proliferation, cells, drug dilution, and any necessary growth factors (10 ng/mL IL-3 or 6.25 ng/mL NRG) were combined in a well of a 96 well plate. Plates were incubated at 37° C. for 48 h and proliferation was read out using Cell Titer Glo according to the manufacturer's protocol. For all normalized assays, proliferation was normalized to the DMSO control condition. All graphs were plotted in GraphPad Prism 6 and fit with a non-linear regression of the log(inhibitor) vs response with a variable slope where shown. All graphs are averages (+/−standard deviation) of biological triplicates each performed in technical triplicate unless otherwise noted. If only one biological replicate was performed standard deviations were derived from the technical replicates.

[2] = target: T1, Axl+ Ba/F3 cells (Homo sapiens, UniProt P30530); test: Ba/F3 proliferation assay, Axl+; conditions: Tables 7 and 8; read-out: Ba/F3 line IC50, Axl+
T1 sequence (P30530 1-894): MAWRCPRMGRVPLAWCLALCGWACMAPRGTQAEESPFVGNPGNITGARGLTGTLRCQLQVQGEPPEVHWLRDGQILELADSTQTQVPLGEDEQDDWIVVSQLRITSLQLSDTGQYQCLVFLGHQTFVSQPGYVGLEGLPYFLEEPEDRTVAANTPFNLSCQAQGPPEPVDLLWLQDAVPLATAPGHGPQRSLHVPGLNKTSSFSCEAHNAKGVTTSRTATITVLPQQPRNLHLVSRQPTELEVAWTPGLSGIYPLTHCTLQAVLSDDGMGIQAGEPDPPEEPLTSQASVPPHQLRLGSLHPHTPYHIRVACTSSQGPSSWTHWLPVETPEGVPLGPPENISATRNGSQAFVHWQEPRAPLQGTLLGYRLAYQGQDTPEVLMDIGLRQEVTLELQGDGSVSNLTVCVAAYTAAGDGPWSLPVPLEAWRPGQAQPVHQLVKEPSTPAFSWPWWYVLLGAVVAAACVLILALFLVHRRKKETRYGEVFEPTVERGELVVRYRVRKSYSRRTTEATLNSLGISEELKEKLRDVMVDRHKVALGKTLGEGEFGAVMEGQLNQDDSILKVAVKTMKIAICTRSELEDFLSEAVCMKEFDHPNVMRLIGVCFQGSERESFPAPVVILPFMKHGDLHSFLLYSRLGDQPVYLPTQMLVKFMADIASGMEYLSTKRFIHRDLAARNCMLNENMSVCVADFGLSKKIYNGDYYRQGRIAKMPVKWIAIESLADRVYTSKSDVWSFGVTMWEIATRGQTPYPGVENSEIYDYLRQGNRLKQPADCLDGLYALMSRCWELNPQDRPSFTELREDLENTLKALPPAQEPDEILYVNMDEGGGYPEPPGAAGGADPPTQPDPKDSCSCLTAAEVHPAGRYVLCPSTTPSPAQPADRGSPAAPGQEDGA
Protocol: (§2) To validate the screen and test the effectiveness of counter-screening with either the same 2YF/3wt Ba/F3 cell line or the parental Ba/F3's in the presence of IL-3 to remove cytotoxic primary hits, we first tested a panel of kinase inhibitors with established mechanisms of action.
For Axl+ cells, the transduced cells were spun down at 500×g for 5 min and resuspended in media supplemented with 10 ng/mL IL-3 and 3 μg/mL puromycin (Invitrogen). Cells were maintained in these conditions for 7 days, passaging as required. After 7 days the cells were spun down, washed with fresh media, and then suspended in IL-3 free media. The cells were maintained in these conditions for 2 weeks to select for an IL-3 independent population of Axl+ driven cells.
as §1

[3] = system: parental Ba/F3 cells + IL-3; test: Ba/F3 proliferation assay, Parental + IL-3; conditions: Tables 7 and 8, read-out: Ba/F3 line IC50, Parental + IL-3
Protocol: as §2, §1

[4] = target: 2YF/3wt + NRG Ba/F3 cells (HER2YF/HER3wt) (Homo sapiens, UniProt P04626, Y1005F/Y1023F/Y1112F/Y1127F/Y1139F/Y1196F/Y1221F/Y1222F/Y1248F, cells depend on it); test: Ba/F3 proliferation assay, 2YF/3wt + NRG; conditions: Tables 7 and 8; read-out: Ba/F3 line IC50, HER2YF/HER3 + NRG
Text: Ba/F3 cells are normally dependent on IL-3 signaling for their proliferation and survival, but can be made dependent on introduced oncogenic signals. We sequentially selected transduced Ba/F3 cells for populations stably expressing HER3 and then HER2. To ensure that all of the proliferative signal could be attributed to HER2/HER3 heterodimers, rather than HER2 homodimers, the 9 C-terminal tyrosines in HER2 were mutated to phenylalanine (HER2YF). We then withdrew IL-3 and supplemented the media with NRG to select for NRG dependent HER2YF/HER3wt cells (2YF/3wt).
For the 2YF/3wt cells, the parental cells were first transduced with HER3 according to the protocol above and were then spun down at 500×g for 5 min and re-suspended in media supplemented with 10 ng/mL IL-3 and 3 μg/mL puromycin (Invitrogen). Cells were maintained in these conditions for seven days, passaging as required. After seven days the cells were spun down, washed with fresh media, and then used for a subsequent round of transduction according to the protocol above with HER2YF virus. […] The cells were maintained in these conditions for seven days, passaging as required. After seven days the cells were spun down, washed with fresh media, and then suspended in media supplemented with 10 ng/mL of NRG. Cells were maintained in these conditions for seven days to select for a NRG dependent population of 2YF/3wt Ba/F3 cells that were then maintained as described above. The same protocol was used for the 2YF-L755S/3wt, 2YF-YVMA/3wt, and 2YF-VC/3wt cell lines using the indicated constructs.
Proliferation Assays. […] The following day media was changed to fresh media that contained either DMSO or the indicated concentration of drug plus NRG (50 ng/mL final concentration) as indicated. […] For all normalized assays, proliferation was normalized to the DMSO control condition. All graphs were plotted in GraphPad Prism 6 and fit with a non-linear regression of the log(inhibitor) vs response with a variable slope where shown. All graphs are averages (+/−standard deviation) of biological triplicates each performed in technical triplicate unless otherwise noted. If only one biological replicate was performed standard deviations were derived from the technical replicates.

2YF/3wt + NRG Ba/F3 cells (HER2YF/HER3wt), sequence (P04626 whole entry Y1005F/Y1023F/Y1112F/Y1127F/Y1139F/Y1196F/Y1221F/Y1222F/Y1248F): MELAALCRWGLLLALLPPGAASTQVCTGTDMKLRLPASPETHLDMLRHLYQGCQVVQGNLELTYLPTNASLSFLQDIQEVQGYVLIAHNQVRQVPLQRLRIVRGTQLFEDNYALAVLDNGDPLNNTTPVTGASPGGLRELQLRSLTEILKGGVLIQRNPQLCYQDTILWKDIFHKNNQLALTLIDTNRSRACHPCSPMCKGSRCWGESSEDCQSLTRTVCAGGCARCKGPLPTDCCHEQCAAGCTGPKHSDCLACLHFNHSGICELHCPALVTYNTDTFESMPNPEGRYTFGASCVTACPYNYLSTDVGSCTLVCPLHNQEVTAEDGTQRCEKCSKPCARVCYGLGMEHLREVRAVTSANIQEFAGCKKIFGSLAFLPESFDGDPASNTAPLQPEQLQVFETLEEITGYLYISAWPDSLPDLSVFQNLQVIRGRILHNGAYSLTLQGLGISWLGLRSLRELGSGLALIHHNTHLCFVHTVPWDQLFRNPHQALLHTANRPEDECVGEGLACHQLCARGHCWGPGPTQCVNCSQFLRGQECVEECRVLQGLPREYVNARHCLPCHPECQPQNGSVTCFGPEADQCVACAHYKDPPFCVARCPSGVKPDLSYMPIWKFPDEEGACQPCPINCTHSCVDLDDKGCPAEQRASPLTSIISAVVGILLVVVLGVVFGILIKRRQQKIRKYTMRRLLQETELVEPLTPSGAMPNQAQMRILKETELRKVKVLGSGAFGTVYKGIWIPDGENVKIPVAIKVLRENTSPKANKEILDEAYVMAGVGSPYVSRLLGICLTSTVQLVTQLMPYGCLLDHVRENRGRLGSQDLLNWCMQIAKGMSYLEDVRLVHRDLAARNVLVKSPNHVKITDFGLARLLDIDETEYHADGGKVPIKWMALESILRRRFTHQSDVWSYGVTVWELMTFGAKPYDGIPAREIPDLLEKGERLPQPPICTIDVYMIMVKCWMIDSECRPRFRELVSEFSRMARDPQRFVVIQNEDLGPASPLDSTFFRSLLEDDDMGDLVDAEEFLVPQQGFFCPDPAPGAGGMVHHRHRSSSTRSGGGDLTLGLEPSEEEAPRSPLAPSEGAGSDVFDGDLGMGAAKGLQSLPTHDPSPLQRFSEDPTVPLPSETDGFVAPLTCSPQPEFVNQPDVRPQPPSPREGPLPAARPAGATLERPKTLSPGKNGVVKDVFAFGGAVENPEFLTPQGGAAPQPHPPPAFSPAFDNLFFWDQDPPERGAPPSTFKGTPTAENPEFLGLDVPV

SMILES	IC50 ([1]; Mus musculus, BaF3)	GI50 [2]	IC50 ([3]; Mus musculus, BaF3)	GI50 [4]	IC50 [1]	IC50 [3]
COc1ccc(-c2ccco2)cc1Nc1ncnc2[nH]nc(-c3ccco3)c12 [55A]	0.908 µM	> 3.33 µM	> 10 µM	0.0395 µM		
CC(=O)c1cccc(-c2n[nH]c3ncnc(Nc4cc(-c5ccccc5)ccc4C)c23)c1 [Cmpd 5-001A]	> 3.33 µM	> 3.33 µM	> 10 µM	> 3.33 µM		
CC(=O)c1cccc(-c2n[nH]c3ncnc(Nc4ccc(Oc5ccccc5)cc4)c23)c1 [Cmpd 5-001B]	> 10 µM	> 10 µM	> 10 µM	> 10 µM		
COc1ccc(-c2ccccc2)cc1Nc1ncnc2[nH]ncc12 [Cmpd 5-004]	3.15 µM	6.94 µM	> 3.33 µM	2.59 µM		
COc1ccc(-c2ccccc2)cc1Nc1ncnc2[nH]nc(-c3ccoc3)c12 [Cmpd 13]	3.4 µM	2.96 µM	> 10 µM	0.839 µM		
COc1ccc(-c2ccccc2C)cc1Nc1ncnc2[nH]nc(-c3ccsc3)c12 [Cmpd 39A]	> 10 µM	> 10 µM	> 10 µM	> 3.33 µM		
COc1ccc(-c2cccc(C)c2)cc1Nc1ncnc2[nH]nc(-c3ccsc3)c12 [Cmpd 39B]	> 3.33 µM	1.76 µM	> 3.33 µM	> 3.33 µM		
COc1ccc(-c2ccc(C)cc2)cc1Nc1ncnc2[nH]nc(-c3ccsc3)c12 [Cmpd 39C]	> 10 µM	> 10 µM	> 10 µM	> 10 µM		
COc1ccc(-c2cccnc2)cc1Nc1ncnc2[nH]nc(-c3ccsc3)c12 [Cmpd 39D]	> 10 µM	> 10 µM	> 10 µM	> 10 µM		
COc1ccc(N2CCOCC2)cc1Nc1ncnc2[nH]nc(-c3ccsc3)c12 [Cmpd 41A]	> 10 µM	> 10 µM	> 10 µM	> 3.33 µM		
COc1ccc(N2CCN(C)CC2)cc1Nc1ncnc2[nH]nc(-c3ccsc3)c12 [Cmpd 41B]	> 1 µM	> 1 µM	> 3.33 µM	> 3.33 µM		
COc1ccc(C(=O)N(C)C)cc1Nc1ncnc2[nH]nc(-c3ccsc3)c12 [Cmpd 42]	> 10 µM	> 10 µM	> 10 µM	> 10 µM		
COc1ccc(-c2ccccc2)cc1N(C)c1ncnc2[nH]nc(-c3ccsc3)c12 [Cmpd 43]	> 3.33 µM	> 3.33 µM	> 3.33 µM	> 3.33 µM		
COc1ccc(-c2ccccc2)cc1Nc1ncnc2[nH]nc(-c3ccco3)c12 [Cmpd 45A]	0.978 µM	1.21 µM	> 10 µM	0.043 µM		
COc1ccc(-c2ccccc2)cc1Nc1ncnc2[nH]nc(-c3cccs3)c12 [Cmpd 45B]	3.61 µM	4.03 µM	> 10 µM	0.745 µM		
COc1ccc(-c2ccccc2)cc1Nc1nc(N)nc2[nH]nc(-c3ccco3)c12 [Cmpd 65]	0.011 µM		0.0084 µM	0.004 µM		

SMILES	IC50 ([1]; Mus musculus, BaF3)	GI50 [2]	IC50 ([3]; Mus musculus, BaF3)	GI50 [4]	IC50 [1]	IC50 [3]
COc1ccc(-c2csc(C)n2)cc1Nc1ncnc2[nH]nc(-c3ccco3)c12 [Cmpd 66A]	2.34 µM			1.56 µM		
COc1ccc(-c2sccc2C)cc1Nc1ncnc2[nH]nc(-c3ccco3)c12 [Cmpd 66B]	0.21 µM			0.031 µM		
COc1ccc(-c2ccnn2C)cc1Nc1ncnc2[nH]nc(-c3ccco3)c12 [Cmpd 66C]	0.642 µM			0.362 µM		
COc1ccc(-c2ccoc2)cc1Nc1ncnc2[nH]nc(-c3ccccc3)c12 [Cmpd 144A]	1.08 µM		> 3.33 µM	0.171 µM		
COc1ccc(-c2ccoc2)cc1Nc1ncnc2[nH]nc(-c3cnn(C)c3)c12 [Cmpd 144B]	0.307 µM		> 3.33 µM	0.0214 µM		
CCOc1ccc(-c2ccccc2)cc1Nc1ncnc2[nH]nc(-c3cn[nH]c3)c12 [Cmpd 147]	0.359 µM		1.36 µM	0.0587 µM		
COc1ccc(-c2ccoc2)cc1Nc1ncnc2[nH]nc(-c3ccnn3C)c12 [Cmpd 152]	2.57 µM		> 10 µM	0.822 µM		
CCOc1ccc(-c2ccoc2)cc1Nc1ncnc2[nH]nc(-c3cn[nH]c3)c12 [Cmpd 153]	0.285 µM		> 3.33 µM	0.0175 µM		
COc1ccc(-c2ccnn2C)cc1Nc1ncnc2[nH]nc(-c3cn[nH]c3)c12 [Cmpd 154A]	> 10 µM		> 10 µM	> 10 µM		
COc1ccc(-c2sccc2C)cc1Nc1ncnc2[nH]nc(-c3cn[nH]c3)c12 [Cmpd 154B]	0.295 µM		> 10 µM	0.0393 µM		
COc1ccc(-c2cnn(C)c2)cc1Nc1ncnc2[nH]nc(-c3cn[nH]c3)c12 [Cmpd 154C]	> 10 µM		> 10 µM	> 10 µM		
COc1ccc(-c2ccc(C#N)s2)cc1Nc1ncnc2[nH]cc(-c3cn[nH]c3)c12 [Cmpd 170]	0.673 µM			0.687 µM		
CCOc1ccc(-c2ccccc2)cc1Nc1ncnc2[nH]cc(-c3cn[nH]c3)c12 [Cmpd 171]	0.183 µM			0.045 µM		
COc1ccc(-c2csc(C)c2)cc1Nc1ncnc2[nH]cc(-c3cn[nH]c3)c12 [Cmpd 172]	0.422 µM			0.91 µM		
COc1ccc(-c2ccoc2)cc1Nc1ncnc2[nH]cc(-c3ccc4nc[nH]c4c3)c12 [Cmpd 173B]	0.228 µM			0.032 µM		
CCOc1ccc(-c2ccccc2)cc1Nc1ncnc2[nH]cc(-c3cc[nH]n3)c12 [Cmpd 176]				0.029 µM	0.217 µM	2.29 µM

Reference: patent US20190119284A1, “ErbB Inhibitors and Uses Thereof” (The Regents of the University of California, priority 2016, published 2019)
